Patent US20130310352A1, “DEXAMETHASONE COMBINATION THERAPY” (priority 2010, published 2013)

Tested on: ARP1 cells
Experiment: Established MM model in SCID mice
Assay type: in vivo
Settings: 5 μmol per kg per day intraperitoneal, versus PBS control
Experimental: Six to eight week old female SCID mice were housed and monitored in MD. Anderson Cancer Center animal research facility. All experimental procedures and protocols had been approved by the Institutional Animal Care and Use Committee at The University of Texas M.D. Anderson Cancer Center. SCID mice were subcutaneously inoculated in the right flank with 1 million ARP1 cells suspended in 50 μl PBS. After palpable tumor developed (tumor diameters ≧5 mm), mice were treated with daily intraperitoneal injection of PBS or compound A (5 μmol per kg per day). Tumor sizes were measured every 5 days, and blood samples were collected with the same period. Tumor burdens were evaluated by measuring tumor size and detecting circulating human kappa chain.
Levels of human kappa chain in mice serum were measured by a quantitative ELISA (Bethyl Laboratories Inc) followed the vendor's protocol.
To examine compound A anti-MM effects in vivo, human MM model in SCID mice were established as described in Materials and Methods. When palpable tumors developed (≧5 mm diameters), mice (10 per group) received intraperitoneal injection of compound A (5 μmol per kg per day) or vehicle control PBS daily.
SCID mice were inoculated subcutaneously in the right flank with 1×10^6 ARP1 cells. Three to 4 weeks later when palpable tumors (≧5 mm in diameter) developed, mice (10 per group) were treated with intraperitoneal injections of PBS or compound A (100 nmol per mouse per day) daily. Tumor burdens were measured as (A) tumor volumes and (B) levels of circulating human kappa china in SCID mice sera detected by ELSA, and (C) survival of tumor-bearing mice.

Nc1cc(C(F)(F)F)c(-c2cc(N3CCOCC3)nc(N3CCOCC3)n2)cn1 [compound A, 5-(2,6-di-morpholin-4-yl-pyrimidin-4-yl)-4-trifluoromethyl-pyridin-2-ylamine]
survival of tumor-bearing mice: significantly prolonged | tumor burden measured by tumor volume (P<0.05): significantly smaller tumor burdens | tumor burden measured by level of circulating human kappa chain (P<0.05, ELISA): significantly smaller tumor burdens
